Experimental findings from US8703776B2 (Cymabay Therapeutics, Inc., priority 2011, dated 2014) are described below.

The target of this assay is T1, human GPR131 (Homo sapiens, UniProt Q8TDU6).
T1 construct: expressed in transfected cells
T1 sequence (Q8TDU6 1-330): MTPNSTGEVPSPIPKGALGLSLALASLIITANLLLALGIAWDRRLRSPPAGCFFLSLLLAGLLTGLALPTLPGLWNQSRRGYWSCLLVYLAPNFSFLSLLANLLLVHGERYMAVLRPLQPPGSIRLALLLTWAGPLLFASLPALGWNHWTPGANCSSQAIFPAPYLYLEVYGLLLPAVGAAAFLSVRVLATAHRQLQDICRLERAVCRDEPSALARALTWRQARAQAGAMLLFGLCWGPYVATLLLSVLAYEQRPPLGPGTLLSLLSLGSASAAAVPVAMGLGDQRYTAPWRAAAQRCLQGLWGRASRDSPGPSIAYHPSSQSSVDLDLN
Kind of assay: Stimulation of cAMP in stable cell line expressing human GPR131 (FRET cAMP kit). In kind it is cell-based. The settings on record: 0.5 h; 1.1 μM compound, relative to maximal stimulatory activity of lithocholic acid at 3.3 μM; 30 minutes at 37° C.; read-out: Percent Activity @ 1.1 μM (of 3.3 uM LCA) (%). How it is done: This assay was developed using a stable cell line expressing human GPR131.
To measure cAMP activity in response to GPR131 agonists, GPR131 cells suspended in DMEM/F12 medium with 1 mM IBMX were seeded in 384 well plates at 5000 cells per well. After incubating with test compounds at 37° C. for 30 minutes cAMP was measured using a fluorescene resonance energy transfer cAMP kit from Cis Bio (Bedford, Mass.) according to the manufacturer's instructions. Briefly, cells were lysed, and cAMP levels determined by competitive immunoassay using D2 labeled cAMP, and europium cryptate tagged anti cAMP antibody. Decreases in the FRET signal (fluorescence ratio (665 nm/620 […]) correspond to increases in intracellular cAMP levels.
Activities of test compounds in Table 1 below are expressed as % activity at 1.1 μM compound compared to the maximal stimulatory activity of lithocholic acid (LCA) (determined at 3.3 μM LCA)

On to `Cc1nn(C)cc1CN(C)Cc1cnc(SCc2c(F)ccc(F)c2F)n1-c1ccc(F)cc1` [Compound 506, 1-(1,3-Dimethyl-1H-pyrazol-4-yl)-N-((1-(4-fluorophenyl)-2-((2,3,6-trifluorobenzyl)thio)-1H-imidazol-5-yl)methyl)-N-methylmethanamine], for which the activation at 1.1 µM amounted to 100%.
In the case of `COc1ccc(CN(C)C(=O)c2cnc(SCc3c(F)ccc(F)c3F)n2-c2ccc(F)cc2)cc1OC` [Compound 507, N-(3,4-Dimethoxybenzyl)-1-(4-fluorophenyl)-N-methyl-2-((2,3,6-trifluorobenzyl)thio)-1H-imidazole-5-carboxamide], the activation at 1.1 µM came out at 93%.
Then `Cc1nn(C)cc1CNC(=O)c1cnc(SCc2c(F)ccc(F)c2F)n1-c1ccc(F)cc1` [Compound 508, N-((1,3-Dimethyl-1H-pyrazol-4-yl)methyl)-1-(4-fluorophenyl)-2-((2,3,6-trifluorobenzyl)thio)-1H-imidazole-5-carboxamide], with 82%; and `CN(Cc1ccncc1)C(=O)c1cnc(SCc2c(F)ccc(F)c2F)n1-c1ccc(F)cc1` [Compound 518, 1-(4-Fluorophenyl)-N-methyl-N-(pyridin-4-ylmethyl)-2-((2,3,6-trifluorobenzyl)thio)-1H-imidazole-5-carboxamide], with 100%; and `CCN(Cc1cn(C)nc1C)C(=O)c1cnc(SCc2c(F)ccc(F)c2F)n1-c1ccc(F)cc1` [Compound 519, N-((1,3-Dimethyl-1H-pyrazol-4-yl)methyl)-N-ethyl-1-(4-fluorophenyl)-2-((2,3,6-trifluorobenzyl)thio)-1H-imidazole-5-carboxamide], with 100%.
On to `CN(Cc1cnn(C)c1)C(=O)c1cnc(SCc2c(F)ccc(F)c2F)n1-c1ccc(F)cc1` [Compound 520, 1-(4-Fluorophenyl)-N-methyl-N-((1-methyl-1H-pyrazol-4-yl)methyl)-2-((2,3,6-trifluorobenzyl)thio)-1H-imidazole-5-carboxamide], for which the activation at 1.1 µM worked out at 98%.
Regarding `Cc1nc(C)c(CN(C)C(=O)c2cnc(SCc3c(F)ccc(F)c3F)n2-c2ccc(F)cc2)s1` [Compound 522, N-((2,4-Dimethylthiazol-5-yl)methyl)-1-(4-fluorophenyl)-N-methyl-2-((2,3,6-trifluorobenzyl)thio)-1H-imidazole-5-carboxamide], the activation at 1.1 µM was determined as 100%.
In the case of `Cc1nn(C)cc1CN(C)C(=O)c1cnc(CCc2c(F)ccc(F)c2F)n1-c1ccc(F)cc1` [Compound 523, N-((1,3-Dimethyl-1H-pyrazol-4-yl)methyl)-1-(4-fluorophenyl)-N-methyl-2-(2,3,6-trifluorophenethyl)-1H-imidazole-5-carboxamide], the activation at 1.1 µM was 96%.
`Cc1nn(C)cc1CN(C)C(=O)c1cnc(SCC(=O)c2ccccc2)n1-c1ccc(F)cc1` [Compound 525, N-((1,3-Dimethyl-1H-pyrazol-4-yl)methyl)-1-(4-fluorophenyl)-N-methyl-2-((2-oxo-2-phenylethyl)thio)-1H-imidazole-5-carboxamide]: the activation at 1.1 µM worked out at 96%.
Consider `Cc1nn(C)cc1C(C)N(C)C(=O)c1cnc(SCc2c(F)ccc(F)c2F)n1-c1ccc(F)cc1` (stereo not drawn) [Compound 526, N-(1-(1,3-Dimethyl-1H-pyrazol-4-yl)ethyl)-1-(4-fluorophenyl)-N-methyl-2-((2,3,6-trifluorobenzyl)thio)-1H-imidazole-5-carboxamide], for which the activation at 1.1 µM worked out at 96%.
Regarding `CN(Cc1ccncc1)C(=O)c1cnc(CCc2c(F)ccc(F)c2F)n1-c1ccc(F)cc1` [Compound 528, 1-(4-Fluorophenyl)-N-methyl-N-(pyridin-4-ylmethyl)-2-(2,3,6-trifluorophenethyl)-1H-imidazole-5-carboxamide], the activation at 1.1 µM is 95%.
Then `Fc1ccc(-n2c(COCc3ccncc3)cnc2SCc2c(F)ccc(F)c2F)cc1` [Compound 530, 4-(((1-(4-Fluorophenyl)-2-((2,3,6-trifluorobenzyl)thio)-1H-imidazol-5-yl)methoxy)methyl)pyridine], with 100%; and `Cc1nn(C)cc1CNCc1cnc(SCc2c(F)ccc(F)c2F)n1-c1ccc(F)cc1` [Compound 531, 1-(1,3-Dimethyl-1H-pyrazol-4-yl)-N-((1-(4-fluorophenyl)-2-((2,3,6-trifluorobenzyl)thio)-1H-imidazol-5-yl)methyl)methanamine], with 84%.
On to `Cc1nn(C)cc1CN(C)C(=O)c1cnc(SCc2c(F)cccc2Cl)n1-c1ccc(F)cc1` [Compound 532, 2-((2-Chloro-6-fluorobenzyl)thio)-N-((1,3-dimethyl-1H-pyrazol-4-yl)methyl)-1-(4-fluorophenyl)-N-methyl-1H-imidazole-5-carboxamide], for which the activation at 1.1 µM came to 100%.
Take `CN(Cc1ccncc1)C(=O)c1cnc(SCc2c(F)cccc2Cl)n1-c1ccc(F)cc1` [Compound 533, 2-((2-Chloro-6-fluorobenzyl)thio)-1-(4-fluorophenyl)-N-methyl-N-(pyridin-4-ylmethyl)-1H-imidazole-5-carboxamide]: the activation at 1.1 µM was found to be 100%.
Turning to `CN(Cc1ccncc1)C(=O)c1cnc(CCc2ccccc2F)n1-c1ccc(F)cc1` [Compound 538, 2-(2-Fluorophenethyl)-1-(4-fluorophenyl)-N-methyl-N-(pyridin-4-ylmethyl)-1H-imidazole-5-carboxamide], the activation at 1.1 µM came out at 90%.
On to `O=C(c1cnc(SCc2c(F)cccc2Cl)n1-c1ccc(F)cc1)N1CCCC1c1ccncc1` (stereo not drawn) [Compound 539, (2-((2-Chloro-6-fluorobenzyl)thio)-1-(4-fluorophenyl)-1H-imidazol-5-yl)(2-(pyridin-4-yl)pyrrolidin-1-yl)methanone], for which the activation at 1.1 µM was 95%.
With `Cc1nn(C)cc1CN(C)C(=O)c1cnc(SCc2c(F)cc(C(=O)OC(C)(C)C)cc2F)n1-c1ccc(F)cc1` [Compound 542, tert-butyl 4-(((5-(((1,3-Dimethyl-1H-pyrazol-4-yl)methyl)(methyl)carbamoyl)-1-(4-fluorophenyl)-1H-imidazol-2-yl)thio)methyl)-3,5-difluorobenzoate], the activation at 1.1 µM was 100%.
The same measure for `Cc1nn(C)cc1CN(C)C(=O)c1cnc(SCc2ccccc2Cl)n1-c1ccc(F)cc1` [Compound 549, 2-((2-Chlorobenzyl)thio)-N-((1,3-dimethyl-1H-pyrazol-4-yl)methyl)-1-(4-fluorophenyl)-N-methyl-1H-imidazole-5-carboxamide]: 98%.
As to `Cc1cc(CN(C)C(=O)c2cnc(SCc3ccccc3Cl)n2-c2ccc(F)cc2)ccn1` [Compound 550, 2-((2-Chlorobenzyl)thio)-1-(4-fluorophenyl)-N-methyl-N-((2-methylpyridin-4-yl)methyl)-1H-imidazole-5-carboxamide], the activation at 1.1 µM was determined as 98%.
In the case of `Cc1nn(C)cc1CN(C)C(=O)c1cnc(SCc2ncccc2Cl)n1-c1ccc(F)cc1` [Compound 551], the activation at 1.1 µM turned out to be 99%.
As for `Cc1nc(CSc2ncc(C(=O)N(C)Cc3cn(C)nc3C)n2-c2ccc(F)cc2)no1` [Compound 552, N-((1,3-Dimethyl-1H-pyrazol-4-yl)methyl)-1-(4-fluorophenyl)-N-methyl-2-(((5-methyl-1,2,4-oxadiazol-3-yl)methyl)thio)-1H-imidazole-5-carboxamide], the activation at 1.1 µM was determined as 99%.
For the compound `Cc1nn(C)cc1CN(C)C(=O)c1cnc(SCc2c(F)cccc2Cl)n1-c1ccc(Cl)cc1` [Compound 553, 2-((2-Chloro-6-fluorobenzyl)thio)-1-(4-chlorophenyl)-N-((1,3-dimethyl-1H-pyrazol-4-yl)methyl)-N-methyl-1H-imidazole-5-carboxamide], the activation at 1.1 µM is 100%.
For `Cc1nn(C)cc1CN(C)C(=O)c1cnc(SCc2c(F)cccc2Cl)n1-c1ccccc1` [Compound 554, 2-((2-Chloro-6-fluorobenzyl)thio)-N-((1,3-dimethyl-1H-pyrazol-4-yl)methyl)-N-methyl-1-phenyl-1H-imidazole-5-carboxamide], the activation at 1.1 µM turned out to be 99%.
For the compound `CN(Cc1ccncc1)C(=O)c1cnc(SCc2c(F)cccc2Cl)n1-c1ccccc1` [Compound 555, 2-((2-Chloro-6-fluorobenzyl)thio)-N-methyl-1-phenyl-N-(pyridin-4-ylmethyl)-1H-imidazole-5-carboxamide], the activation at 1.1 µM amounted to 100%.
Regarding `CN(Cc1ccncc1)C(=O)c1cnc(SCc2c(F)cccc2Cl)n1-c1ccc(Cl)cc1` [Compound 556, 2-((2-Chloro-6-fluorobenzyl)thio)-1-(4-chlorophenyl)-N-methyl-N-(pyridin-4-ylmethyl)-1H-imidazole-5-carboxamide], the activation at 1.1 µM turned out to be 99%.
Take `CN(Cc1ccncc1)C(=O)c1cnc(SCc2c(Cl)cccc2Cl)n1-c1ccc(F)cc1` [Compound 561, 2-((2,6-Dichlorobenzyl)thio)-1-(4-fluorophenyl)-N-methyl-N-(pyridin-4-ylmethyl)-1H-imidazole-5-carboxamide]: the activation at 1.1 µM turned out to be 95%.
